Test results: patent publication US20220135622A1, “ANTIBACTERIAL PEPTIDES AND METHODS OF USE” (priority 2019, published 2022)
Entries after “also recorded” stand apart in the source; their conditions may differ.

What was measured:
[1] = Biolayer interferometry: captured biotinylated LAB peptides binding to LPS (KDO2-lipid A)
Experimental: (§1) Biolayer interferometry. Phospholipid (Avanti polar lipids) and KDO2-lipid A (US Biological Life Sciences) stock solutions were prepared by resuspension into 25 mM Tris pH 8, 100 mM NaCl, 0.05% LMNG buffer and solubilized overnight at 4° C. Lipid stocks were diluted prior to experiments into 25 mM Tris pH 8, 100 mM NaCl, 0.5 mg/mL BSA, 0.05% LMNG. All assays were performed at 25° C. in 25 mM Tris pH 8, 100 mM NaCl, 0.5 mg/mL BSA, 0.05% LMNG. Biotinylated-LAB peptides were loaded onto SA biosensors to a response of approximately 0.5 nm. Binding to phospholipids and KDO2-lipid A was measured at concentrations of 150, 100, 50, 25, and 10 μM with 300s association and dissociation steps. Assays were performed in triplicate on an Octet Red384 (ForteBio) and buffer and lipid signals were subtracted by using a biotin-blocked reference streptavidin (SA) biosensor. Dissociation constants for LABWT and LABWT+, interactions with KDO2-lipidA were estimated by plotting response values at equilibrium as a function of concentration and fit to a global specific binding with Hill slope model in Prism (Graphpad Software).
Based on the intriguing chemical characteristics of the LPS-PbgA interface, the possibility that a linear peptide derived from PbgA might selectively bind to LPS in vitro was considered. A peptide encompassing the lipid A-binding (LAB)-motif (209SYPMTARRFLEKHGLLD225; SEQ ID NO: 67) with an additional Gly-Ser-linker and biotin modification was generated and used in an interferometry-based assay. […] Two peptides intended to destabilize essential lipid A binding determinants were tested as controls.

E. coli = assay: Cell growth inhibition assay with or without EDTA; assay type: cell-based, Escherichia coli; details: irrespective of the presence or absence of EDTA (0.5 mM)
Experimental: (§2) Peptide sensitivity and MIC assays. Lyophilized peptides (Smartox Biotechnology, CPC Scientific. ABclonal) were solubilized to 10 mM in Tris buffer, pH 8, prior to making a 2-fold dilution series in MHBII cation adjusted broth with highest final assay concentration of 400-800 μM. Bacteria were grown to log phase and added to final OD600˜0.001. The final EDTA concentration was 0.5 mM for E. coli strains and 0.125 mM for USA300. The final volume of 10 μL/well in a 384 well black, clear bottom plate (Corning) was spun <1 min at <250×g and then incubated at 37° C. After 4 h, an equal volume (10 μL) of BacTiter-Glo™ (Promega) was added to each well and luminescence was read after 5 min on an EnVision plate reader (PerkinElmer). To measure the minimal inhibitory concentrations (MICs), bacteria from fresh overnight plates or log phase cultures were diluted with or without EDTA and peptides as described above to final OD600˜0.0002. Plates were incubated at 37° C. for 20 h before measuring OD600 with an EnVision plate reader.
It was reasoned that the relatively large molecular weight (>2 kDa) and limited α-helical propensity of the linear LABWT peptide (SEQ ID NO: 1) might limit its access to LPS in the bacterial OM. […]

[2] = Biolayer interferometry: captured biotinylated LAB peptides binding to phospholipids; design: species or system E. coli; details: above background
Experimental: as §1
Based on the intriguing chemical characteristics of the LPS-PbgA interface, the possibility that a linear peptide derived from PbgA might selectively bind to LPS in vitro was considered. […]

wild-type E. coli strain = assay: Bacterial growth inhibition, wild-type E. coli strain; assay type: cell-based, Escherichia coli
Experimental: (§3) Bacterial growth conditions. LB or Mueller Hinton II cation-adjusted broth (MHB II, BBL 212322) was prepared according to manufacturer's instructions and supplemented with arabinose at 0.02% for overnight growth or at indicated concentrations in the description of the figures. Bacterial cultures were grown at 37° C. When appropriate, media was supplemented with kanamycin (50 μg/mL), carbenicillin (50 μg/mL), chloramphenicol (12.5 or 25 μg/mL), hygromycin (200 μg/mL), and/or gentamicin (10 μg/mL).
as §2, with “To measure the minimal inhibitory concentrations (MICs), bacteria from fresh overnight plates or log phase cultures were diluted with or without EDTA and peptides as described above to final OD600˜0.0002.” left out

E. coli+FhuAΔC/Δ4L = assay: Bacterial growth inhibition, E. coli+FhuAΔC/Δ4L; assay type: cell-based, Escherichia coli
Experimental: as §3
as §2, with “To measure the minimal inhibitory concentrations (MICs), bacteria from fresh overnight plates or log phase cultures were diluted with or without EDTA and peptides as described above to final OD600˜0.0002.” left out

E. coli imp4213 = assay: Bacterial growth inhibition, E. coli imp4213; assay type: cell-based, Escherichia coli
Experimental: as §3
as §2, with “To measure the minimal inhibitory concentrations (MICs), bacteria from fresh overnight plates or log phase cultures were diluted with or without EDTA and peptides as described above to final OD600˜0.0002.” left out

E. coli BW25113 = assay type: cell-based, Escherichia coli; details: Table 6; E. coli K-12 wild-type parent BW25113
Procedure, shortened: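 For MIC, bacteria (final OD600 ~0.0002) were incubated with 2-fold peptide dilutions (top 400–800 μM) in cation-adjusted MHB II with or without EDTA, 20 h at 37 °C, read by OD600. EDTA was 0.5 mM for E. coli and 0.125 mM for USA300. The growth-inhibition assay used log-phase cells at OD600 ~0.001, 4 h at 37 °C, BacTiter-Glo luminescence.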

E. coli mcr-1 = assay type: cell-based, Escherichia coli; details: Table 6
Procedure, shortened: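 OD600 after 20 h at 37° C gives the MIC. Cells at final OD600 ~0.0002 in cation-adjusted MHB II face a 2-fold peptide series up to 400-800 μM final, with EDTA at 0.5 mM (E. coli strains) or 0.125 mM (USA300).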

## GSSYPMTARRFLE (Ac-GSSYPMTARRFLE-NH2) [SEQ ID NO: 2]
[1]; interferometry, above background, listed as LABΔα7
  binding to LPS: Neither a peptide lacking the α7 helix (LABΔα7; SEQ ID NO: 2) nor a peptide containing the T213D mutation equivalent (LABT213D; SEQ ID NO: 3) showed detectable binding to LPS or PLs above background; also recorded: failed to bind LPS in vitro
E. coli
  effect on bacterial cell growth: showed no effect on bacterial cell growth
[2]
  binding to PLs: Neither a peptide lacking the α7 helix (LABΔα7; SEQ ID NO: 2) nor a peptide containing the T213D mutation equivalent (LABT213D; SEQ ID NO: 3) showed detectable binding to LPS or PLs above background

## GSSYPMTARRFLEKHGLLD [SEQ ID NO: 1]
[1]; LPS (KDO2-lipid A), biotinylated peptide on SA biosensor, 25° C., estimated from equilibrium responses
  Kd: ~75 µM
[1]; versus the major PLs found in E. coli
  selective binding to LPS over PLs: bound LPS selectively over the major PLs
wild-type E. coli strain
  growth inhibition: failed to inhibit the growth
E. coli+FhuAΔC/Δ4L
  growth inhibition: significantly impacted the growth
E. coli imp4213
  growth inhibition: significantly impacted the growth

## Polymyxin B [reference compound]
E. coli BW25113
  Polymyxin B MIC: 0.2 µM
E. coli mcr-1
  Polymyxin B MIC: 12.5 µM
